Experimental findings from patent US9828622B2, “Photoactivatable antimicrobial agents and therapeutic and diagnostic methods of using same” (The General Hospital Corporation, priority 2008, dated 2017) are described below.

Entries after “also recorded” stand apart in the source; their conditions may differ. Like-named read-outs stand apart in the source and are kept apart here.

The target of test [1] is purified B. cereus beta-lactamase. Nature of the test: Competitive substrate inhibition of β-LEAP hydrolysis, purified enzyme. The test is classed as biochemical, Bacillus cereus. Particulars: competitive beta-lactam substrate; 384 multi-well plate. On the procedure: (§1) (a.) inhibition constants of a panel of β-lactams for the competitive substrate inhibition of β-LEAP hydrolysis by B. cereus β-lactamase, (b.) inhibition constants for β-LEAP hydrolysis by bacterial suspensions, (c.) inhibition profiles of panel of β-lactams for B. cereus, (d.) MICs of panel of β-lactams for B. cereus. […] Statistical significance was determined via Tukey multiple comparison test using Graphpad Prism 5. Horizontal bars connected by solid intersections indicate significant difference.
(§2) This Example describes a new methodology for use in characterizing beta-lactamases by using a competitive substrate inhibition assay. It is believed that no competitive substrate inhibition assays for determining beta-lactamase functionality are currently in use by clinical microbiology laboratories. This new approach is based on exploiting the sensitivity and mechanism of the β-LEAP compound of the invention. More in particular, this approach is based on measuring the level of induced-fluorescence caused by the cleavage/hydrolysis and consequent activation of the β-LEAP compound by beta-lactamase enzymes under evaluation while also in the presence of, or “in competition” with, different types and amounts of beta-lactamase enzyme substrates. The degree of inhibition of β-LEAP hydrolysis/fluorescence due to competition with the beta-lactam competitor substrates is determined, which provides the basis for determining beta-lactamase functionality.
(§3) This approach involved combining in a 384 multi-well assay plate format purified B. cereus beta-lactamase or bacterial suspensions with the β-LEAP of the invention and a competitive beta-lactam substrate, including amoxicillin, clavulanic acid, ampicillin, penicillin G, carbenicillin, cefazolin, cefatoxime or ceftazidime.

The target in test [2] is Bacillus cereus 5/β bacterial suspensions. As to the kind of experiment: Competitive substrate inhibition of β-LEAP hydrolysis, bacterial suspensions. The test is classed as cell-based. The conditions noted are these: competitive beta-lactam substrate; whole bacteria suspensions. On the procedure: as §1, §2, §3
A short description of test [3]: Photosensitizing efficacy. An excerpt: The terminal carboxyl group with the flexible alkyl chain provides an ideal site for conjugation. 7-amino-3-chloromethyl-3-cephem-4-carboxylic acid p-methoxybenzyl ester (ACLE, commercial available) is used as cephalosporin scaffold. ACLE is a common starting material to synthesize cephalosporin derivatives. It integrates an amino group at 7-position. By replacing chlorine at 3′-position with 4-amino-thiophenol provides an additional amino group therefore each ACLE molecule can accommodate two EtNBS-COOH molecules to form a static quenching pair.

The test system of the next test is B. cereus. Nature of the test: Growth inhibition / MIC assay. It is filed as cell-based, Bacillus cereus. On the procedure:
as §1, §3

For `CO/N=C(\C(=O)N[C@@H]1C(=O)N2C(C(=O)O)=C(COC(C)=O)CS[C@H]12)c1csc(N)n1` [cefatoxime], the “inhibition of β-LEAP hydrolysis/fluorescence (inhibition constants, Ki, FIG. 13a)” value in test [1] is listed as “more effective inhibitors”. Further, the “inhibition of β-LEAP hydrolysis/fluorescence (inhibition constants, Ki, FIG. 13b)” value in test [2] is given as “more effective inhibitors”.

Take `CCN(CC)c1ccc2nc3c(cc(NCCCCC(=O)O)c4ccccc43)[s+]c2c1` [EtNBS-COOH, 5-(4′-carboxybutylamino)-9-diethylaminobenzo[a]phenothiazine]: the photosensitizing efficacy result in test [3] is on record as “excellent photosensitizing efficacy”.

As to cephalothin, the “inhibition of β-LEAP hydrolysis/fluorescence (inhibition constants, Ki, FIG. 13a)” value in test [1] is listed as “more effective inhibitors”. Also, in test [2], the “inhibition of β-LEAP hydrolysis/fluorescence (inhibition constants, Ki, FIG. 13b)” value was “more effective inhibitors”.

For `CC(C)(O/N=C(\C(=O)N[C@@H]1C(=O)N2C(C(=O)[O-])=C(C[n+]3ccccc3)CS[C@H]12)c1csc(N)n1)C(=O)O` [ceftazidime], the “inhibition of β-LEAP hydrolysis/fluorescence (inhibition constants, Ki, FIG. 13a)” value in test [1] is “more effective inhibitors”. Moreover, the “inhibition of β-LEAP hydrolysis/fluorescence (inhibition constants, Ki, FIG. 13b)” value in test [2] is recorded as “more effective inhibitors”.

In the case of `CC1(C)S[C@@H]2[C@H](NC(=O)[C@H](N)c3ccccc3)C(=O)N2[C@H]1C(=O)O` [ampicillin], the “inhibition of β-LEAP hydrolysis/fluorescence (inhibition constants, Ki, FIG. 13a)” value in test [1] is given as “detected”. Besides, the “in vitro growth inhibition (MIC assay)” value with B. cereus is listed as “did not inhibit the growth”; in the test on B. cereus (listed as ampillin), “no inhibition”.

`CC1(C)S[C@@H]2[C@H](NC(=O)[C@H](N)c3ccc(O)cc3)C(=O)N2[C@H]1C(=O)O` [amoxicillin]: the “inhibition of β-LEAP hydrolysis/fluorescence (inhibition constants, Ki, FIG. 13a)” value in test [1] was “detected”. Moreover, the “in vitro growth inhibition (MIC assay)” value was “no inhibition” in the test on B. cereus and “did not inhibit the growth” in the test on B. cereus (listed as Amoxicillin).

For the molecule `O=C(O)[C@H]1/C(=C/CO)O[C@@H]2CC(=O)N21` [clavulanic acid], the “in vitro growth inhibition (MIC assay)” value with B. cereus is “no inhibition; also recorded: did not inhibit the growth”.
